pIC50: −log10 of the molar value.
Columns and labels:
[1] = test system: pulmonary fibrosis induced by bleomycin in mice; experiment: mRNA levels of fibrosis-related markers in lung tissue (qRT-PCR); assay type: in vivo, mouse; conditions: 60, 90 mg/kg
Description: About 30 mg of cryopreserved lung tissue was weighed and homogenized and lysed by adding 200 μL of Trizol (Takara, 9109 #). The fluid after the lysis in the well was collected by the RNA sterilization-grade pipette tip and transferred to the corresponding sterile EP tube. […] of chloroform was added, shaken vigorously for 30 sec, and centrifuged for 15 minutes in a centrifuge at 4° C. at 12000 rpm. The upper aqueous layer was transferred to a new EP tube, an equal volume of isopropanol was used to precipitate the RNA in the aqueous phase, and the tube was allowed to stand at −20° C. for more than 1 hr. And then the tube was centrifuged for 15 min at 4° C. at 12000 rpm, and the supernatant was discarded. 75% ethanol was added to wash the RNA pellet, and then the tube was centrifuged for 15 min at 4° C. at 12000 rpm, and the supernatant was discarded. The tube was placed at room temperature for 10-20 min to dry the RNA pellet. 25-200 μL of RNase-free water was added for dissolution and stored at −80° C.
PrimeScript™ RT Master Mix (Takara, RR036A) was selected for mRNA reverse transcription. Please refer to the instructions for the system. In short, 1 μg of mRNA was added to a 20 μL system, mixed and then kept at a constant temperature in a 37° C. water bath for 15 minutes, and then the enzyme was inactivated at 85° C. for 5 seconds. After centrifugation, double distilled water was used to dilute 10 times.
Q-PCR technology used 2×SYBR Green qPCR Master Mix (B21202, Biomake), and the reaction system could be prepared according to the instruction (10 μL of 2×SYBGreen, 8.8 μL of cDNA template, 1.2 μL of 5 μM primer Mix). The reaction conditions are: pre-denaturation at 95° C. for 5 min, denaturation at 95° C. for 30 sec, annealing at 60° C. for 30 sec, and extension at 72° C. for 30 sec, the number of reaction cycles is 40 cycles.
The experiment used qRT-PCR technology to determine the mRNA levels of fibrosis-related markers in lung tissue.
The experimental method was the same as that for the evaluation of the mRNA levels of inflammatory cytokines.

[2] = test system: pulmonary fibrosis induced by bleomycin in mice; experiment: Hydroxyproline level of the whole lung; assay type: in vivo, mouse; conditions: Effect example 5; compared with the BLM control group
Description: The change in hydroxyproline was determined by using a hydroxyproline detection kit, the steps are as follows:
1) The wet weights of the lung tissues in different groups were accurately weighed, and the lung tissues were placed in a 20 ml centrifuge tube after weighing.
2) 1 ml of hydrolysate was added to a 20 ml centrifuge tube and the tube was placed in boiling water at a constant temperature for 20 minutes.
3) The pH of the sample was adjusted to 6.0-8.0 with the reagents provided in the kit.
4) The reagents in the centrifuge tube were made up to 10 ml with distilled water, and mixed thoroughly.
5) 5 ml of hydrolysate was taken from the centrifuge tube, an appropriate amount of activated carbon was added, mixed thoroughly, centrifuged at 3500 rpm for 10 minutes in a centrifuge, and 1 ml of upper supernatant layer was taken for subsequent monitoring.
6) Reagents 1, 2, and 3 were added in order, mixed thoroughly, and then placed in a water bath at 60° C. for 15 minutes, then placed at room temperature for 5 minutes, and centrifuged in a centrifuge at 3500 rpm for 10 minutes. […] Distilled water was used as the zero setting and the absorbance value of each sample at 550 nm wavelength was determined.
7) A standard curve was drew based on the absorbance of the standard, and used as a basis to determine the hydroxyproline content of each sample. […]

FGFR-1 = FGFR-1 (Homo sapiens (Human), UniProt P11362); experiment: Enzyme selectivity test (ELISA), FGFR-1; assay type: biochemical
Description: 1) Enzyme reaction substrate Poly(Glu, Tyr) 4:1 was diluted to 20 μg/mL with potassium-free PBS (10 mM sodium phosphate buffer, 150 mM NaCl, pH 7.2-7.4), and the microtiter plate was coated with 125 μL/well and placed at 37° C. for 12-16 hours of reaction. The liquid in the well was discard. The plate was washed three times with T-PBS (potassium-free PBS containing 0.1% Tween-20, 200 μL/well), 5 minutes each time. The ELISA plate was dried in an oven at 37° C. for 1 to 2 hours.
2) Reaction buffer (50 mM HEPES pH 7.4, 50 mM MgCl2, 0.5 mM MnCl2, 0.2 mM Na3VO4, 1 mM DTT) diluted ATP solution (49 μL) was added to each well, 1 μL of the compound to be tested was added to each well, and then 50 μL of DDR2 kinase domain recombinant protein diluted in the reaction buffer was added to start the reaction. Two control wells without ATP were set in each experiment. The plate placed on a shaker (100 rpm) at 37° C. for 1 hour of reaction. The liquid in the well was discarded and the plate was washed three times with T-PBS.
3) Antibody PY99 dilution solution (the antibody was diluted 1:500 with T-PBS containing BSA 5 mg/mL) was added at 100 μL/well, and shaken on a shaker at 37° C. for 0.5 hour of reaction. The liquid in the well was discarded and the plate was washed three times with T-PBS.
4) Horseradish peroxidase labeled goat anti-murine secondary antibody dilution solution (the antibody is diluted 1:2000 with T-PBS containing BSA 5 mg/ml) was added at 100 μL/well, and shaken on a shaker at 37° C. for 0.5 hour of reaction. The liquid in the well was discarded and the plate was washed three times with T-PBS.
5) 2 mg/ml of OPD color developing solution [diluted with 0.1 M citric acid-sodium citrate buffer (pH=5.4) containing 0.03% H2O2] was added at 100 μL/well and reacted for 1 to 10 minutes at 25° C. in the dark.
6) 2M H2SO4 was added at 50 μL/well to stop the reaction, and a tunable wavelength microplate reader VERSAmax was used for reading at a wavelength of 490 nm.
The IC50 value was obtained by four-parameter regression using the software that came with the microplate reader. […]

Sequence of FGFR-1 (P11362 22-822, species assumed): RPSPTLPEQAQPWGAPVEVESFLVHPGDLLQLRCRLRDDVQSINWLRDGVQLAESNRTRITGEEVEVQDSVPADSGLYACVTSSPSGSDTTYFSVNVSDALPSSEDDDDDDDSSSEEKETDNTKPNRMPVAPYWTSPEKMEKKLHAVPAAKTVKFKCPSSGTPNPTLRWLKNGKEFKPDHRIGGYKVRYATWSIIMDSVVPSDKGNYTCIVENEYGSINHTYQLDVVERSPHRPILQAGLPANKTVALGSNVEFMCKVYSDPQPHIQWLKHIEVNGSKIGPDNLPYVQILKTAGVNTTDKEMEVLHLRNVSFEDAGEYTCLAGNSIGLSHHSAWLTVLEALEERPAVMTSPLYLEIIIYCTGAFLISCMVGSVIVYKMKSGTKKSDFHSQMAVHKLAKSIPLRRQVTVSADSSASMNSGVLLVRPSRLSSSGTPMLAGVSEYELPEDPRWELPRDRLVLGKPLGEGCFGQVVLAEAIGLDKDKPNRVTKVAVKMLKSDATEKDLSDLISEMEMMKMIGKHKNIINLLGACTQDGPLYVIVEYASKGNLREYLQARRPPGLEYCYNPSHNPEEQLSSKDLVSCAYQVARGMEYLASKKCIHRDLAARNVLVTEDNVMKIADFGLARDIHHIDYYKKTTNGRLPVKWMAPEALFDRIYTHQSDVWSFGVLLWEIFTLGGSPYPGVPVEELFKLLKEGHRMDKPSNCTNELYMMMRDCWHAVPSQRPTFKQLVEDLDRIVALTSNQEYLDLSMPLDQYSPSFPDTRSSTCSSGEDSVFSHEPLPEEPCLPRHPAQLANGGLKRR

`O=C(Nc1cccc(C(F)(F)F)c1)c1ccc(C2CC2)c(-c2ccc3nc(Nc4cnn(C5CC5)c4)ncc3c2)c1` [Compound S15, 4-cyclopropyl-3-(2-((1-cyclopropyl-1H-pyrazol-4-yl)amino)quinazolin-6-yl)-N-(3-(trifluoromethyl)phenyl)benzamide] was tested, and the “reduction of expression (mRNA) of Collagen1-α1” value [1] was “about 90%”, the “reduction of expression (mRNA) of TGF-β1” value [1] was “about 90%” and the “reduction of expression (mRNA) of α-SMA” value [1] was “about 90%”. For the same compound, the “hydroxyproline level of the whole lung” value [2] was “significantly reduce the level of hydroxyproline” and the pIC50 (FGFR-1) was less than 8.00.

Reference: US11655239B2 (SHANGHAI INSTITUTE OF MATERIAL MEDICA, CHINESE ACADEMY OF …, priority 2019, dated 2023)
